Measured values published in patent publication US20120121591A1 (priority 2009, published 2012).

What was measured:
Type in all cases: cell-based
[1] = target: hKv1.3 (Homo sapiens, UniProt P22001); experiment: cell-based; details: Kv1.3 (IWQ) IC50 (nM, Avg)
[2] = test system: IL-2 secretion from T cells in human whole blood; details: read-out: WB (IL-2) IC50 (nM, Avg)
[3] = test system: IFN-g secretion from T cells in human whole blood; details: read-out: WB (IFNg) IC50 (nM, Avg)

Sequence of hKv1.3 (P22001 whole entry): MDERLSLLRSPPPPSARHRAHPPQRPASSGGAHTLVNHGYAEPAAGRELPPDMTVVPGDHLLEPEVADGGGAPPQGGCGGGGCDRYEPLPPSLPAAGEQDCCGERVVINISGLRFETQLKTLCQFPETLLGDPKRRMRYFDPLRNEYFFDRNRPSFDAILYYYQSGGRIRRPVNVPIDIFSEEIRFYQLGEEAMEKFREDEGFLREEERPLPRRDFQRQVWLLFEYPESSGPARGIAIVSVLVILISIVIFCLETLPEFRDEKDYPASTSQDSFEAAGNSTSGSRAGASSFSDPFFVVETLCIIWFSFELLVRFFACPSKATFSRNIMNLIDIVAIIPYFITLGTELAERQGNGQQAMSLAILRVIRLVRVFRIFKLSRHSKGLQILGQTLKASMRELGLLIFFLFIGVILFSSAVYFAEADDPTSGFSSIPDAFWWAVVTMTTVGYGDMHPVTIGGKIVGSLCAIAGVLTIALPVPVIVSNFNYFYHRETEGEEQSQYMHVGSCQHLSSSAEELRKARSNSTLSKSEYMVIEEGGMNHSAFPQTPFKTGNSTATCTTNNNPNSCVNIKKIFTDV

Row | SMILES | IC50 [1] | IC50 [2] | IC50 [3]
1 | CC[C@H](C)[C@@H]1NC(=O)[C@@H](NC(=O)[C@H](CO)NC(=O)[C@@H](N)CCCNC(=N)N)CSSC[C@@H](C(=O)O)NC(=O)[C@H]([C@@H](C)O)NC(=O)CNC(=O)[C@@H]2CSSC[C@@H]3NC(=O)[C@H](CCC(N)=O)NC(=O)[C@H](Cc4ccccc4)NC(=O)[C@H](C)NC(=O)[C@H]([C@@H](C)O)NC(=O)[C@H](CSSC[C@H](NC(=O)[C@H](C)NC(=O)[C@H](CO)NC(=O)[C@H](CC(C)C)NC(=O)[C@H](CCCNC(=N)N)NC(=O)[C@H](Cc4ccc(O)cc4)NC(=O)[C@H](CCCCN)NC(=O)[C@H](CCSC)NC(=O)[C@H](CO)NC(=O)[C@H](Cc4c[nH]cn4)NC(=O)[C@H](CCCCN)NC3=O)C(=O)N[C@@H](CCCNC(=N)N)C(=O)N[C@@H](CCCCN)C(=O)N[C@@H]([C@@H](C)O)C(=O)N2)NC(=O)[C@H](CCCNC(=N)N)NC(=O)[C@H](CO)NC(=O)[C@H](CCCCN)NC(=O)[C@@H]2CCCN2C(=O)[C@H]([C@@H](C)CC)NC(=O)[C@H]([C@@H](C)O)NC(=O)[C@H](CC(=O)O)NC1=O [[Ala27]ShK] | 0.207 nM | 1.57 nM | 8.78 nM
2 | CC[C@H](C)[C@@H]1NC(=O)[C@@H](NC(=O)[C@H](CO)NC(=O)[C@@H](N)CCCNC(=N)N)CSSC[C@@H](C(=O)O)NC(=O)[C@H]([C@@H](C)O)NC(=O)CNC(=O)[C@@H]2CSSC[C@@H]3NC(=O)[C@H](CCC(N)=O)NC(=O)[C@H](Cc4ccccc4)NC(=O)[C@H](C)NC(=O)[C@H]([C@@H](C)O)NC(=O)[C@H](CSSC[C@H](NC(=O)[C@H](Cc4ccccc4)NC(=O)[C@H](CO)NC(=O)[C@H](CC(C)C)NC(=O)[C@H](CCCNC(=N)N)NC(=O)[C@H](Cc4ccc(O)cc4)NC(=O)[C@H](CCCCN)NC(=O)[C@H](CCSC)NC(=O)[C@H](CO)NC(=O)[C@H](Cc4c[nH]cn4)NC(=O)[C@H](CCCCN)NC3=O)C(=O)N[C@@H](CCCNC(=N)N)C(=O)N[C@@H](C)C(=O)N[C@@H]([C@@H](C)O)C(=O)N2)NC(=O)[C@H](CCCNC(=N)N)NC(=O)[C@H](CO)NC(=O)[C@H](CCCCN)NC(=O)[C@@H]2CCCN2C(=O)[C@H]([C@@H](C)CC)NC(=O)[C@H]([C@@H](C)O)NC(=O)[C@H](CC(=O)O)NC1=O [[Ala30]ShK] | 0.178 nM | 0.258 nM | 0.394 nM
3 | CC[C@H](C)[C@@H]1NC(=O)[C@@H](NC(=O)[C@H](CO)NC(=O)[C@@H](N)CCCNC(=N)N)CSSC[C@@H](C(=O)O)NC(=O)[C@H]([C@@H](C)O)NC(=O)[C@H](C)NC(=O)[C@@H]2CSSC[C@@H]3NC(=O)[C@H](CCC(N)=O)NC(=O)[C@H](Cc4ccccc4)NC(=O)[C@H](C)NC(=O)[C@H]([C@@H](C)O)NC(=O)[C@H](CSSC[C@H](NC(=O)[C@H](Cc4ccccc4)NC(=O)[C@H](CO)NC(=O)[C@H](CC(C)C)NC(=O)[C@H](CCCNC(=N)N)NC(=O)[C@H](Cc4ccc(O)cc4)NC(=O)[C@H](CCCCN)NC(=O)[C@H](CCSC)NC(=O)[C@H](CO)NC(=O)[C@H](Cc4c[nH]cn4)NC(=O)[C@H](CCCCN)NC3=O)C(=O)N[C@@H](CCCNC(=N)N)C(=O)N[C@@H](CCCCN)C(=O)N[C@@H]([C@@H](C)O)C(=O)N2)NC(=O)[C@H](CCCNC(=N)N)NC(=O)[C@H](CO)NC(=O)[C@H](CCCCN)NC(=O)[C@@H]2CCCN2C(=O)[C@H]([C@@H](C)CC)NC(=O)[C@H]([C@@H](C)O)NC(=O)[C@H](CC(=O)O)NC1=O [[Ala33]ShK] | 0.075 nM | 0.049 nM | 0.1 nM
4 | CC[C@H](C)[C@@H]1NC(=O)[C@@H](NC(=O)[C@H](CO)NC(=O)[C@@H](N)CCCNC(=N)N)CSSC[C@@H](C(=O)O)NC(=O)[C@H](C)NC(=O)CNC(=O)[C@@H]2CSSC[C@@H]3NC(=O)[C@H](CCC(N)=O)NC(=O)[C@H](Cc4ccccc4)NC(=O)[C@H](C)NC(=O)[C@H]([C@@H](C)O)NC(=O)[C@H](CSSC[C@H](NC(=O)[C@H](Cc4ccccc4)NC(=O)[C@H](CO)NC(=O)[C@H](CC(C)C)NC(=O)[C@H](CCCNC(=N)N)NC(=O)[C@H](Cc4ccc(O)cc4)NC(=O)[C@H](CCCCN)NC(=O)[C@H](CCSC)NC(=O)[C@H](CO)NC(=O)[C@H](Cc4c[nH]cn4)NC(=O)[C@H](CCCCN)NC3=O)C(=O)N[C@@H](CCCNC(=N)N)C(=O)N[C@@H](CCCCN)C(=O)N[C@@H]([C@@H](C)O)C(=O)N2)NC(=O)[C@H](CCCNC(=N)N)NC(=O)[C@H](CO)NC(=O)[C@H](CCCCN)NC(=O)[C@@H]2CCCN2C(=O)[C@H]([C@@H](C)CC)NC(=O)[C@H]([C@@H](C)O)NC(=O)[C@H](CC(=O)O)NC1=O [[Ala34]ShK] | 0.123 nM | 0.063 nM | 0.075 nM
5 | CC[C@H](C)[C@@H]1NC(=O)[C@@H](NC(=O)[C@H](CCCNC(=N)N)NC(=O)[C@@H](N)CCCNC(=N)N)CSSC[C@@H](C(=O)O)NC(=O)[C@H]([C@@H](C)O)NC(=O)CNC(=O)[C@@H]2CSSC[C@@H]3NC(=O)[C@H](CCC(N)=O)NC(=O)[C@H](Cc4ccccc4)NC(=O)[C@H](C)NC(=O)[C@H]([C@@H](C)O)NC(=O)[C@H](CSSC[C@H](NC(=O)[C@H](Cc4ccccc4)NC(=O)[C@H](CO)NC(=O)[C@H](CC(C)C)NC(=O)[C@H](CCCNC(=N)N)NC(=O)[C@H](Cc4ccc(O)cc4)NC(=O)[C@H](CCCCN)NC(=O)[C@H](CCSC)NC(=O)[C@H](CO)NC(=O)[C@H](Cc4c[nH]cn4)NC(=O)[C@H](CCCCN)NC3=O)C(=O)N[C@@H](CCCNC(=N)N)C(=O)N[C@@H](CCCCN)C(=O)N[C@@H]([C@@H](C)O)C(=O)N2)NC(=O)[C@H](CCCNC(=N)N)NC(=O)[C@H](CO)NC(=O)[C@H](CCCCN)NC(=O)[C@@H]2CCCN2C(=O)[C@H]([C@@H](C)CC)NC(=O)[C@H]([C@@H](C)O)NC(=O)[C@H](CC(=O)O)NC1=O [[Arg2]ShK] | 0.074 nM | 0.097 nM | 0.087 nM
6 | CC[C@H](C)[C@@H]1NC(=O)[C@@H](NC(=O)[C@H](CO)NC(=O)[C@@H](N)CCCNC(=N)N)CSSC[C@@H](C(=O)O)NC(=O)[C@H]([C@@H](C)O)NC(=O)CNC(=O)[C@@H]2CSSC[C@@H]3NC(=O)[C@H](CCC(N)=O)NC(=O)[C@H](Cc4ccccc4)NC(=O)[C@H](C)NC(=O)[C@H]([C@@H](C)O)NC(=O)[C@H](CSSC[C@H](NC(=O)[C@H](Cc4ccccc4)NC(=O)[C@H](CO)NC(=O)[C@H](CC(C)C)NC(=O)[C@H](CCCNC(=N)N)NC(=O)[C@H](Cc4ccc(O)cc4)NC(=O)[C@H](CCCCN)NC(=O)[C@H](CCSC)NC(=O)[C@H](CO)NC(=O)[C@H](Cc4c[nH]cn4)NC(=O)[C@H](CCCCN)NC3=O)C(=O)N[C@@H](CCCNC(=N)N)C(=O)N[C@@H](CCCCN)C(=O)N[C@@H]([C@@H](C)O)C(=O)N2)NC(=O)[C@H](CCCNC(=N)N)NC(=O)[C@H](CO)NC(=O)[C@H](CCCCN)NC(=O)[C@@H]2CCCN2C(=O)[C@H]([C@@H](C)CC)NC(=O)[C@H]([C@@H](C)O)NC(=O)[C@H](CCCNC(=N)N)NC1=O [[Arg5]ShK] | 3.3 nM | 47.3 nM | 91.7 nM
7 | CC[C@H](C)[C@@H]1NC(=O)[C@@H](NC(=O)[C@H](CO)NC(=O)[C@@H](N)CCCNC(=N)N)CSSC[C@@H](C(=O)O)NC(=O)[C@H]([C@@H](C)O)NC(=O)CNC(=O)[C@@H]2CSSC[C@@H]3NC(=O)[C@H](CCC(N)=O)NC(=O)[C@H](Cc4ccccc4)NC(=O)[C@H](C)NC(=O)[C@H]([C@@H](C)O)NC(=O)[C@H](CSSC[C@H](NC(=O)[C@H](Cc4ccccc4)NC(=O)[C@H](CO)NC(=O)[C@H](CC(C)C)NC(=O)[C@H](CCCNC(=N)N)NC(=O)[C@H](Cc4ccc(O)cc4)NC(=O)[C@H](CCCCN)NC(=O)[C@H](CCSC)NC(=O)[C@H](CO)NC(=O)[C@H](Cc4c[nH]cn4)NC(=O)[C@H](CCCCN)NC3=O)C(=O)N[C@@H](CCCNC(=N)N)C(=O)N[C@@H](CCCCN)C(=O)N[C@@H]([C@@H](C)O)C(=O)N2)NC(=O)[C@H](CCCNC(=N)N)NC(=O)[C@H](CO)NC(=O)[C@H](CCCCN)NC(=O)[C@@H]2CCCN2C(=O)[C@H]([C@@H](C)CC)NC(=O)[C@H](CCCNC(=N)N)NC(=O)[C@H](CC(=O)O)NC1=O [[Arg6]ShK] | 0.178 nM | 0.246 nM | 0.4 nM
8 | CC[C@H](C)[C@@H]1NC(=O)[C@@H](NC(=O)[C@H](CO)NC(=O)[C@@H](N)CCCNC(=N)N)CSSC[C@@H](C(=O)O)NC(=O)[C@H]([C@@H](C)O)NC(=O)CNC(=O)[C@@H]2CSSC[C@@H]3NC(=O)[C@H](CCC(N)=O)NC(=O)[C@H](Cc4ccccc4)NC(=O)[C@H](C)NC(=O)[C@H]([C@@H](C)O)NC(=O)[C@H](CSSC[C@H](NC(=O)[C@H](Cc4ccccc4)NC(=O)[C@H](CO)NC(=O)[C@H](CC(C)C)NC(=O)[C@H](CCCNC(=N)N)NC(=O)[C@H](Cc4ccc(O)cc4)NC(=O)[C@H](CCCCN)NC(=O)[C@H](CCSC)NC(=O)[C@H](CO)NC(=O)[C@H](Cc4c[nH]cn4)NC(=O)[C@H](CCCCN)NC3=O)C(=O)N[C@@H](CCCNC(=N)N)C(=O)N[C@@H](CCCCN)C(=O)N[C@@H]([C@@H](C)O)C(=O)N2)NC(=O)[C@H](CCCNC(=N)N)NC(=O)[C@H](CO)NC(=O)[C@H](CCCCN)NC(=O)[C@@H]2CCCN2C(=O)[C@H](CCCNC(=N)N)NC(=O)[C@H]([C@@H](C)O)NC(=O)[C@H](CC(=O)O)NC1=O [[Arg7]ShK] | 0.301 nM | 6.39 nM | 11.1 nM
9 | CC[C@H](C)[C@@H]1NC(=O)[C@@H](NC(=O)[C@H](CO)NC(=O)[C@@H](N)CCCNC(=N)N)CSSC[C@@H](C(=O)O)NC(=O)[C@H]([C@@H](C)O)NC(=O)CNC(=O)[C@@H]2CSSC[C@@H]3NC(=O)[C@H](CCC(N)=O)NC(=O)[C@H](Cc4ccccc4)NC(=O)[C@H](C)NC(=O)[C@H]([C@@H](C)O)NC(=O)[C@H](CSSC[C@H](NC(=O)[C@H](Cc4ccccc4)NC(=O)[C@H](CO)NC(=O)[C@H](CC(C)C)NC(=O)[C@H](CCCNC(=N)N)NC(=O)[C@H](Cc4ccc(O)cc4)NC(=O)[C@H](CCCCN)NC(=O)[C@H](CCSC)NC(=O)[C@H](CO)NC(=O)[C@H](Cc4c[nH]cn4)NC(=O)[C@H](CCCCN)NC3=O)C(=O)N[C@@H](CCCNC(=N)N)C(=O)N[C@@H](CCCCN)C(=O)N[C@@H]([C@@H](C)O)C(=O)N2)NC(=O)[C@H](CCCNC(=N)N)NC(=O)[C@H](CO)NC(=O)[C@H](CCCCN)NC(=O)[C@H](CCCNC(=N)N)NC(=O)[C@H]([C@@H](C)CC)NC(=O)[C@H]([C@@H](C)O)NC(=O)[C@H](CC(=O)O)NC1=O [[Arg8]ShK] | 0.07 nM | 0.187 nM | 1.42 nM
